In publication PMC10855908 (International Journal of Molecular Sciences, 2024):
No end group written: not given here.

Columns and labels:
C. coli ATCC33559 = conditions: ATCC33559, 24 h, 200 μg/mL
[1] = system: Campylobacter coli ATCC 33559; conditions: ATCC 33559, 24 h
C. perfringens MLG6907 [2] = format: cell-based, Clostridium perfringens
C. perfringens MLG1819 [3] = format: cell-based, Clostridium perfringens
C. perfringens MLG5719 [4] = format: cell-based, Clostridium perfringens
C. perfringens MLG5806 [5] = format: cell-based, Clostridium perfringens
C. perfringens MLG7307 [6] = format: cell-based, Clostridium perfringens
C. perfringens MLG4201 [7] = format: cell-based, Clostridium perfringens
C. perfringens MLG3111 [8] = format: cell-based, Clostridium perfringens
C. perfringens MLG3406 [9] = format: cell-based, Clostridium perfringens
C. perfringens MLG0712 [10] = format: cell-based, Clostridium perfringens
C. perfringens MLG1108 [11] = format: cell-based, Clostridium perfringens
C. perfringens MLG1619 [12] = format: cell-based, Clostridium perfringens
C. perfringens MLG7307 [13] = format: cell-based, Clostridium perfringens; remark: listed apart in the source
C. perfringens MLG4206 [14] = format: cell-based, Clostridium perfringens
C. perfringens MLG2314 [15] = format: cell-based, Clostridium perfringens
C. perfringens MLG0618 [16] = format: cell-based, Clostridium perfringens
C. perfringens MLG7009 [17] = format: cell-based, Clostridium perfringens
C. perfringens MLG2203 [18] = format: cell-based, Clostridium perfringens
C. perfringens MLG2314 [19] = format: cell-based, Clostridium perfringens; remark: listed apart in the source
C. perfringens MLG0418 [20] = format: cell-based, Clostridium perfringens
C. perfringens MLG7309 [21] = format: cell-based, Clostridium perfringens
C. perfringens MLG1108 [22] = format: cell-based, Clostridium perfringens; remark: listed apart in the source
C. perfringens MLG7814 [23] = format: cell-based, Clostridium perfringens
C. perfringens MLG0712 [24] = format: cell-based, Clostridium perfringens; remark: listed apart in the source
C. perfringens MLG7309 [25] = format: cell-based, Clostridium perfringens; remark: listed apart in the source
C. perfringens MLG5806 [26] = format: cell-based, Clostridium perfringens; remark: listed apart in the source
C. perfringens MLG1819 [27] = format: cell-based, Clostridium perfringens; remark: listed apart in the source
C. perfringens MLG0418 [28] = format: cell-based, Clostridium perfringens; remark: listed apart in the source
C. perfringens MLG0618 [29] = format: cell-based, Clostridium perfringens; remark: listed apart in the source
C. perfringens MLG2919 [30] = format: cell-based, Clostridium perfringens
C. perfringens MLG3406 [31] = format: cell-based, Clostridium perfringens; remark: listed apart in the source
C. perfringens MLG7814 [32] = format: cell-based, Clostridium perfringens; remark: listed apart in the source
C. perfringens MLG5719 [33] = format: cell-based, Clostridium perfringens; remark: listed apart in the source
C. perfringens MLG4206 [34] = format: cell-based, Clostridium perfringens; remark: listed apart in the source
C. perfringens MLG1619 [35] = format: cell-based, Clostridium perfringens; remark: listed apart in the source
C. perfringens MLG2203 [36] = format: cell-based, Clostridium perfringens; remark: listed apart in the source
C. perfringens MLG7009 [37] = format: cell-based, Clostridium perfringens; remark: listed apart in the source
C. perfringens MLG2919 [38] = format: cell-based, Clostridium perfringens; remark: listed apart in the source
C. perfringens MLG4201 [39] = format: cell-based, Clostridium perfringens; remark: listed apart in the source
C. perfringens MLG3111 [40] = format: cell-based, Clostridium perfringens; remark: listed apart in the source
C. perfringens MLG6907 [41] = format: cell-based, Clostridium perfringens; remark: listed apart in the source

MGAIAKLVAKFGWPIVKKYYKQIMQFIGEGWAINKIIEWIKKHI [Enterocin L50A]
Inhibition halos (C. coli ATCC33559): 10 mm
MIC [1]: 25 µg/mL

Nisin (ITSISLCTPGCKTGALMGCNMKTATCHCSIHVSK; thioether (positions not given here); not fully specified (some residues, bridges); UniProt P13068 24-57, looked up)
Inhibition halos (C. perfringens MLG6907 [2]): 23 mm
Inhibition halos (C. perfringens MLG1819 [3]): 19 mm
MIC (C. perfringens MLG5719 [4]): 1.56 µg/mL
MIC (C. perfringens MLG5806 [5]): 1.56 µg/mL
MIC (C. perfringens MLG7307 [6]): 0.78 µg/mL
MIC (C. perfringens MLG4201 [7]): 0.78 µg/mL
MIC (C. perfringens MLG3111 [8]): 0.39 µg/mL
Inhibition halos (C. perfringens MLG3406 [9]): 19 mm
Inhibition halos (C. perfringens MLG0712 [10]): 17 mm
MIC (C. perfringens MLG1108 [11]): 0.78 µg/mL
MIC (C. perfringens MLG1619 [12]): 0.19 µg/mL
Inhibition halos (C. perfringens MLG7307 [13]): 20 mm
MIC (C. perfringens MLG4206 [14]): 1.56 µg/mL
Inhibition halos (C. perfringens MLG2314 [15]): 20 mm
MIC (C. perfringens MLG0618 [16]): 0.39 µg/mL
MIC (C. perfringens MLG7009 [17]): 1.56 µg/mL
MIC (C. perfringens MLG2203 [18]): <0.09 µg/mL
MIC (C. perfringens MLG2314 [19]): 1.56 µg/mL
MIC (C. perfringens MLG0418 [20]): 1.56 µg/mL
MIC (C. perfringens MLG7309 [21]): 0.78 µg/mL
Inhibition halos (C. perfringens MLG1108 [22]): 16 mm
Inhibition halos (C. perfringens MLG7814 [23]): 23 mm
MIC (C. perfringens MLG0712 [24]): 0.39 µg/mL
Inhibition halos (C. perfringens MLG7309 [25]): 17 mm
Inhibition halos (C. perfringens MLG5806 [26]): 19 mm
MIC (C. perfringens MLG1819 [27]): 0.39 µg/mL
Inhibition halos (C. perfringens MLG0418 [28]): 23 mm
Inhibition halos (C. perfringens MLG0618 [29]): 14 mm
MIC (C. perfringens MLG2919 [30]): 1.56 µg/mL
MIC (C. perfringens MLG3406 [31]): 3.12 µg/mL
MIC (C. perfringens MLG7814 [32]): 3.12 µg/mL
Inhibition halos (C. perfringens MLG5719 [33]): 19 mm
Inhibition halos (C. perfringens MLG4206 [34]): 25 mm
Inhibition halos (C. perfringens MLG1619 [35]): 20 mm
Inhibition halos (C. perfringens MLG2203 [36]): 24 mm
Inhibition halos (C. perfringens MLG7009 [37]): 20 mm
Inhibition halos (C. perfringens MLG2919 [38]): 21 mm
Inhibition halos (C. perfringens MLG4201 [39]): 18 mm
Inhibition halos (C. perfringens MLG3111 [40]): 27 mm
MIC (C. perfringens MLG6907 [41]): 1.56 µg/mL
